This note sets out measurements from US10117864B2, “Substituted N-bicyclo-2-aryl-quinolin-4-carboxamides and use thereof” (BAYER PHARMA AKTIENGESELLSCHAFT, priority 2015, dated 2018).

The target of this experiment is human FP receptor (Homo sapiens (Human), UniProt P43088). Kind of experiment: In vitro test of inhibition of human FP receptor activity (PGF2α-induced calcium flux in FP-expressing CHEM1 cells). It is filed as cell-based. The note with it: PGF2α-induced (3 nM) calcium flux, some as mean values from multiple independent determinations. An excerpt: • CRTH2 chemoattractant receptor-homologous molecule expressed on T helper type 2 cells • DMEM Dulbecco's modified Eagle's medium • DMSO dimethyl sulfoxide • DP PGD2 receptor • EC50 half-maximum effective concentration • Em emission • EP PGE2 receptor • Ex excitation • from Company (source) • FCS fetal calf serum • FP PGF2α receptor • HEPES 2-[4-(2-hydroxyethyl)piperazin-1-yl]ethanesulfonic acid • IC50 half-maximum inhibitory concentration • IP PGI2 receptor • MES 2-(N-morpholino)ethanesulfonic acid • Pen/Strep penicillin/streptomycin • PGD2 prostaglandin D2 • PGE2 prostaglandin E2 • PGF2α prostaglandin F2α • PGI2 prostaglandin I2 • TC tissue culture • TP thromboxane A2 receptor • Tris tris(hydroxymethyl)aminomethane • v/v volume to volume ratio (of a solution) • w/w weight to weight ratio (of a solution) B-1. In Vitro Test of Inhibition of Human FP Receptor Activity
Sequence of human FP receptor (P43088 whole entry): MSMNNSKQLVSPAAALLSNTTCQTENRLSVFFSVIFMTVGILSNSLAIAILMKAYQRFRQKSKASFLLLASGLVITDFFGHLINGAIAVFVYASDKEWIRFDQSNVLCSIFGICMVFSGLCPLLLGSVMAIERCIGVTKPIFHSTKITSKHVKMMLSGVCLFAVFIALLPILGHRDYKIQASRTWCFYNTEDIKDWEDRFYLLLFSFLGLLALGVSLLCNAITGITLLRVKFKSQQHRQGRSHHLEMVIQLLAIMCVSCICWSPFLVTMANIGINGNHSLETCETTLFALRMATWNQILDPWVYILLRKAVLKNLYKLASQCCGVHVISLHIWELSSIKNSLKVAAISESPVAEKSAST
For the characterization of test substances in respect of FP antagonism, PGF2α-induced calcium flux in FP-expressing CHEM1 cells (Millipore, HTS093C) was used.
Prior to the measurement, the medium is replaced by 30 μl of Fluo-8 AM loading buffer [calcium-free Tyrode (130 mM NaCl, 5 mM KCl, 20 mM HEPES, 1 mM MgCl2, 4.8 mM NaHCO3, pH 7.4), 2 mM CaCl2, 1× SmartBlock (from CANDOR Bioscience GmbH), 4.5 mM Probenecid, 5 μM Fluo-8 AM, 0.016% Pluronic®, 0.04% Brilliant black] and incubated at 37° C./5% CO2 for 30 minutes. […] 10 μl of the prediluted substance solution are added to the Fluo-8-laden cells and incubated at 37° C./5% CO2 for 10 minutes. The FP receptor is activated by adding 20 μl of 3 nM (final concentration) PGF2α in calcium-free Tyrode/2 mM CaCl2/0.04% Brilliant black, and the calcium flux is determined by measuring the fluorescence at ex. 470 nm/[…].
Table 1 below lists the IC50 values from this assay for individual working examples of the invention (some as mean values from multiple independent individual determinations): […]
For `Cc1c(-c2ccccc2)nc2ccc(Br)cc2c1C(=O)NC12CCC(C(=O)O)(CC1)C(O)C2` (racemic) [Example 59, 4-{[(6-Bromo-3-methyl-2-phenylquinolin-4-yl)carbonyl]amino}-2-hydroxybicyclo[2.2.2]octane-1-carboxylic acid (racemate)], the IC50 (commonly the concentration that inhibits the measured activity by half) was determined as 435 nM.
The result for `Cc1c(-c2ccccc2)nc2ccc(Cl)cc2c1C(=O)NC12CCC(C(=O)O)(CC1)CC2` [Example 2, 4-{[(6-Chloro-3-methyl-2-phenylquinolin-4-yl)carbonyl]amino}bicyclo[2.2.2]octane-1-carboxylic acid] reads 259 nM; that for `Cc1c(-c2ccccc2)nc2cc(Cl)c(Cl)cc2c1C(=O)NC12CCC(C(=O)O)(CC1)CC2` [Example 3, 4-{[(6,7-Dichloro-3-methyl-2-phenylquinolin-4-yl)carbonyl]amino}bicyclo[2.2.2]octane-1-carboxylic acid], 142 nM; that for `Cc1c(-c2cccs2)nc2ccc(Br)cc2c1C(=O)NC12CCC(C(=O)O)(CC1)CC2` [Example 5, 4-({[6-Bromo-3-methyl-2-(2-thienyl)quinolin-4-yl]carbonyl}amino)bicyclo[2.2.2]octane-1-carboxylic acid], 113 nM.
Take `Cc1c(-c2ccccc2F)nc2ccc(Br)cc2c1C(=O)NC12CCC(C(=O)O)(CC1)CC2` [Example 6, 4-({[6-Bromo-2-(2-fluorophenyl)-3-methylquinolin-4-yl]carbonyl}amino)bicyclo[2.2.2]octane-1-carboxylic acid]: the IC50 is 240 nM.
The result for `Cc1c(-c2cccc(F)c2)nc2ccc(Br)cc2c1C(=O)NC12CCC(C(=O)O)(CC1)CC2` [Example 7, 4-({[6-Bromo-2-(3-fluorophenyl)-3-methylquinolin-4-yl]carbonyl}amino)bicyclo[2.2.2]octane-1-carboxylic acid] reads 181 nM; that for `Cc1c(-c2ccc(F)cc2)nc2ccc(Br)cc2c1C(=O)NC12CCC(C(=O)O)(CC1)CC2` [Example 8, 4-({[6-Bromo-2-(4-fluorophenyl)-3-methylquinolin-4-yl]carbonyl}amino)bicyclo[2.2.2]octane-1-carboxylic acid], 180 nM; that for `Cc1c(-c2cc(F)cc(F)c2)nc2ccc(Br)cc2c1C(=O)NC12CCC(C(=O)O)(CC1)CC2` [Example 9, 4-({[6-Bromo-2-(3,5-difluorophenyl)-3-methylquinolin-4-yl]carbonyl}amino)bicyclo[2.2.2]octane-1-carboxylic acid], 386 nM.
The result for `Cc1c(-c2ccccc2Cl)nc2ccc(Br)cc2c1C(=O)NC12CCC(C(=O)O)(CC1)CC2` [Example 10, 4-({[6-Bromo-2-(2-chlorophenyl)-3-methylquinolin-4-yl]carbonyl}amino)bicyclo[2.2.2]octane-1-carboxylic acid] reads 128 nM; that for `Cc1c(-c2cccc(Cl)c2)nc2ccc(Br)cc2c1C(=O)NC12CCC(C(=O)O)(CC1)CC2` [Example 11, 4-({[6-Bromo-2-(3-chlorophenyl)-3-methylquinolin-4-yl]carbonyl}amino)bicyclo[2.2.2]octane-1-carboxylic acid], 129 nM; that for `O=C(NC12CCC(C(=O)O)(CC1)CC2)c1c(F)c(-c2ccccc2)nc2ccc(Br)cc12` [Example 12, 4-{[(6-Bromo-3-fluoro-2-phenylquinolin-4-yl)carbonyl]amino}bicyclo[2.2.2]octane-1-carboxylic acid], 139 nM.
On to `COc1c(-c2ccccc2)nc2ccc(Br)cc2c1C(=O)NC12CCC(C(=O)O)(CC1)CC2` [Example 13, 4-{[(6-Bromo-3-methoxy-2-phenylquinolin-4-yl)carbonyl]amino}bicyclo [2.2.2]octane-1-carboxylic acid], for which the IC50 was found to be 153 nM.
On to `Cc1c(-c2ccccc2)nc2ccc(I)cc2c1C(=O)NC12CCC(C(=O)O)(CC1)CC2` [Example 14, 4-{[(6-Iodo-3-methyl-2-phenylquinolin-4-yl)carbonyl]amino}bicyclo[2.2.2]octane-1-carboxylic acid], for which the IC50 worked out at 33 nM.
The same measure for `Cc1c(-c2ccccc2)nc2ccc(C3CC3)cc2c1C(=O)NC12CCC(C(=O)O)(CC1)CC2` [Example 15, 4-{[(6-Cyclopropyl-3-methyl-2-phenylquinolin-4-yl)carbonyl]amino}bicyclo[2.2.2]octane-1-carboxylic acid]: 326 nM; for `Cc1c(-c2ccccc2)nc2ccc(C3CCC3)cc2c1C(=O)NC12CCC(C(=O)O)(CC1)CC2` [Example 16, 4-{[(6-Cyclobutyl-3-methyl-2-phenylquinolin-4-yl)carbonyl]amino}bicyclo [2.2.2]octane-1-carboxylic acid]: 589 nM; for `Cc1c(-c2ccccc2)nc2ccc([Si](C)(C)C)cc2c1C(=O)NC12CCC(C(=O)O)(CC1)CC2` [Example 17, 4-({[3-Methyl-2-phenyl-6-(trimethylsilyl)quinolin-4-yl]carbonyl}amino)bicyclo[2.2.2]octane-1-carboxylic acid]: 214 nM.
On to `Cc1c(-c2ccccc2)nc2ccc(C(F)F)cc2c1C(=O)NC12CCC(C(=O)O)(CC1)CC2` [Example 18, 4-({[6-(Difluoromethyl)-3-methyl-2-phenylquinolin-4-yl]carbonyl}amino)bicyclo[2.2.2]octane-1-carboxylic acid], for which the IC50 turned out to be 543 nM.
In the case of `Cc1c(-c2ccccc2)nc2ccc(OC(F)(F)F)cc2c1C(=O)NC12CCC(C(=O)O)(CC1)CC2` [Example 19, 4-({[3-Methyl-2-phenyl-6-(trifluoromethoxy)quinolin-4-yl]carbonyl}amino)bicyclo[2.2.2]octane-1-carboxylic acid], the IC50 amounted to 917 nM.
With `Cc1c(-c2ccccc2)nc2ccc(SC(F)(F)F)cc2c1C(=O)NC12CCC(C(=O)O)(CC1)CC2` [Example 20, 4-[({3-Methyl-2-phenyl-6-[(trifluoromethyl)sulfanyl]quinolin-4-yl}carbonyl)amino]bicyclo[2.2.2]octane-1-carboxylic acid], the IC50 was 521 nM.
In the case of `Cc1c(-c2ccccc2)nc2c(C)cc(Br)cc2c1C(=O)NC12CCC(C(=O)O)(CC1)CC2` [Example 21, 4-{[(6-Bromo-3,8-dimethyl-2-phenylquinolin-4-yl)carbonyl]amino}bicyclo[2.2.2]octane-1-carboxylic acid], the IC50 is 214 nM.
Consider `Cc1c(-c2ccccc2)nc2c(Cl)cc(Cl)cc2c1C(=O)NC12CCC(C(=O)O)(CC1)CC2` [Example 22, 4-{[(6,8-Dichloro-3-methyl-2-phenylquinolin-4-yl)carbonyl]amino}bicyclo[2.2.2]octane-1-carboxylic acid], for which the 50% inhibitory concentration (IC50) worked out at 677 nM.
In the case of `Cc1cc2nc(-c3ccccc3)c(C)c(C(=O)NC34CCC(C(=O)O)(CC3)CC4)c2cc1C` [Example 23], the half-maximal inhibitory concentration (IC50) stood at 306 nM.
On to `Cc1ccccc1-c1nc2ccc(Br)cc2c(C(=O)NC23CCC(C(=O)O)(CC2)CC3)c1C` [Example 24, 4-({[6-Bromo-3-methyl-2-(2-methylphenyl)quinolin-4-yl]carbonyl}amino)bicyclo[2.2.2]octane-1-carboxylic acid], for which the IC50 stood at 129 nM.
For `Cc1c(-c2c(F)cccc2F)nc2ccc(Br)cc2c1C(=O)NC12CCC(C(=O)O)(CC1)CC2` [Example 25, 4-({[6-Bromo-2-(2,6-difluorophenyl)-3-methylquinolin-4-yl]carbonyl}amino)bicyclo[2.2.2]octane-1-carboxylic acid], the IC50 stood at 494 nM.
